Measured values: US20250188093A1, “TYK2 INHIBITORS AND USES THEREOF” (Alumis Inc., priority 2022, published 2025)

How the values were obtained:
IFNa, PBMCs, p-STAT5 = assay: INFα induced pSTAT5 in human PBMC; format: cell-based; conditions: 0.25 h, IFNa 5000 units/ml, 15 minutes
Method: Fresh Human PBMCs were resuspended in RPMI 1640 medium with 10% FBS. Cells were seeded in a round bottom 96-well plate at the concentration of 200,000 cells/well. A 10-point dilution series of test compound (top dose 10 uM, 1:5 dilution) was added to the well using the liquid dispenser (Tecan D300e) and incubated for 1 hour at 37 C. Then human INFα recombinant protein (R&D Systems) was added to the well at the final concentration of 5000 units/ml and incubated for 15 minutes at 37 C. Cell lysates were prepared and analyzed by Phospho STAT5 (Tyr693) Kit (Meso Scale Discovery) following manufacturer's protocol.
For calculation of the inhibition rate, the relative pSTAT5 signal of each well=pSTAT5 signal of each well−the average pSTAT5 signal of baseline.
The inhibition %=(the average pSTAT5 signal of INFα treatment wells−the relative of pSTAT5 signal in each compound containing well)/the average pSTAT5 signal of INFα treatment wells*100%
The curve was plotted as the inhibition % (y-axis) vs. compounds concentration (x-axis) and is fitted with log (inhibitor) vs. normalized response—Variable slope by GraphPad Prism7.0.

JAK2 JH2 = target: T1, JAK2 JH2 (Homo sapiens, UniProt O60674); assay: KINOMEscan binding, JAK2 JH2
T1 construct: JAK2 JH2
T1 sequence (O60674 545-809 limits assumed): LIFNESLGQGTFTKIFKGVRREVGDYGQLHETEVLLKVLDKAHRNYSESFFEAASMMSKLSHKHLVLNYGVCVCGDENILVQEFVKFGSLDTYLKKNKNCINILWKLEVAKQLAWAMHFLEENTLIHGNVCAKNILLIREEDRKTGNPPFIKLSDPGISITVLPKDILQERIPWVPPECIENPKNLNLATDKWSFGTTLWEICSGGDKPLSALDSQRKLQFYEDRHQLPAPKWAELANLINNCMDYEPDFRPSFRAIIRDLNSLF

IFNa, PBMCs, p-STAT3 = assay: IFNa induced p-STAT3 in PBMCs; format: cell-based; conditions: PBMC; human PBMCs, IFNa stimulation
JAK3 JH1 = target: T2, JAK3 JH1 (Homo sapiens, UniProt P52333); assay: KINOMEscan binding, JAK3 JH1
T2 construct: JAK3 JH1
T2 sequence (P52333 822-1111 limits assumed): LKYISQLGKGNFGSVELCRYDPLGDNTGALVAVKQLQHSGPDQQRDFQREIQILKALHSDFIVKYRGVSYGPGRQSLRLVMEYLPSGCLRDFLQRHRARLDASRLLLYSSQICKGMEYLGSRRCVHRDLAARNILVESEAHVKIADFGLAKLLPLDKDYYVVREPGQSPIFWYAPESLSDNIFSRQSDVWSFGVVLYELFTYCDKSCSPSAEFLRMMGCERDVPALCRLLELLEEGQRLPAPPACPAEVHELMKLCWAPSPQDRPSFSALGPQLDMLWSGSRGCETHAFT

JAK1 JH1 = target: T3, JAK1 JH1 (Homo sapiens, UniProt P23458); assay: KINOMEscan binding, JAK1 JH1
T3 construct: JAK1 JH1
T3 sequence (P23458 875-1153 limits assumed): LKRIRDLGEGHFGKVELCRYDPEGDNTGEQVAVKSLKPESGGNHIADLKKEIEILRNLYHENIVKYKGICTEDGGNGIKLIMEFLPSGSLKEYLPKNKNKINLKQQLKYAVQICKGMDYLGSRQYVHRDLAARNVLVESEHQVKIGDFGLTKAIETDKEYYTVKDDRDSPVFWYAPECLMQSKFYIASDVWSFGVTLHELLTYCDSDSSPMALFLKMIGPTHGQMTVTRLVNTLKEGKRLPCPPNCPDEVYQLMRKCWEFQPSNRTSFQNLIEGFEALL

[1] = target: T4, human TYK2 (JH2domain-pseudokinase) (Homo sapiens, UniProt P29597); assay: TYK2 JH2 domain binding assay (KINOMEscan)
T4 construct: host or cells: transiently transfected HEK293 cells; unpurified extract
T4 sequence (P29597 556-888): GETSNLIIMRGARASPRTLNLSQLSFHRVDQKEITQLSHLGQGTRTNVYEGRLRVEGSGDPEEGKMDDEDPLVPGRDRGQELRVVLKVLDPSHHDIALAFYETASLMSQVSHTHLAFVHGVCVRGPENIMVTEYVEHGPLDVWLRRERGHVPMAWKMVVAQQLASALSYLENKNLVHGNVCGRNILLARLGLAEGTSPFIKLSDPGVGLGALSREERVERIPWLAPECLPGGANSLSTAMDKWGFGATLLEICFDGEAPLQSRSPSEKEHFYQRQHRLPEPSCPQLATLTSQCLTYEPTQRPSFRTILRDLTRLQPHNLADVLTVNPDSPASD
Method: Binding constants for the compounds described herein against the JH2 domain were determined by the following protocol for a KINOMEscan® assay (DiscoveRx). A fusion protein of a partial length construct of human TYK2 (JH2domain-pseudokinase) (amino acids G556 to D888 based on reference sequence NP_003322.3) and the DNA binding domain of NFkB was expressed in transiently transfected HEK293 cells. From these HEK 293 cells, extracts were prepared in M-PER extraction buffer (Pierce) in the presence of Protease Inhibitor Cocktail Complete (Roche) and Phosphatase Inhibitor Cocktail Set II (Merck) per manufacturers' instructions. The TYK2 (JH2domain-pseudokinase) fusion protein was labeled with a chimeric double-stranded DNA tag containing the NFkB binding site fused to an amplicon for qPCR readout, which was added directly to the expression extract (the final concentration of DNA-tag in the binding reaction is 0.1 nM).
Streptavidin-coated magnetic beads (Dynal M280) were treated with a biotinylated small molecule ligand for 30 minutes at room temperature to generate affinity resins the binding assays. The liganded beads were blocked with excess biotin and washed with blocking buffer (SeaBlock (Pierce), 1% BSA, 0.05% Tween 20, 1 mM DTT) to remove unbound ligand and to reduce nonspecific binding.
The binding reaction was assembled by combining 16 μl of DNA-tagged kinase extract, 3.8 μl liganded affinity beads, and 0.18 μl test compound (PBS/0.05% Tween 20/10 mM DTT/0.1% BSA/2 μg/ml sonicated salmon sperm DNA)]. Extracts were used directly in binding assays without any enzyme purification steps at a ≥10,000-fold overall stock dilution (final DNA-tagged enzyme concentration <0.1 nM). Extracts were loaded with DNA-tag and diluted into the binding reaction in a two-step process. First extracts were diluted 1:100 in 1× binding buffer (PBS/0.05% Tween 20/10 mM DTT/0.1% BSA/2 μg/ml sonicated salmon sperm DNA) containing 10 nM DNA-tag. This dilution was allowed to equilibrate at room temperature for 15 minutes and then subsequently diluted 1:100 in 1× binding buffer. Test compounds were prepared as 111× stocks in 100% DMSO. Kds were determined using an 11-point 3-fold compound dilution series with three DMSO control points. All compounds for Kd measurements were distributed by acoustic transfer (non-contact dispensing) in 100% DMSO. The compounds were then diluted directly into the assays such that the final concentration of DMSO was 0.9%. All reactions were performed in polypropylene 384-well plates. Each was a final volume of 0.02 mL. Assays were incubated with shaking for 1 hour at room temperature. Then the beads were pelleted and washed with wash buffer (1×PBS, 0.05% Tween 20) to remove displaced kinase and test compound. The washed based were re-suspended in elution buffer (1×PBS, 0.05% Tween 20, 0.5 μM non-biotinylated affinity ligand) and incubated at room temperature with shaking for 30 minutes. The kinase concentration in the eluates was measured by qPCR. qPCR reactions were assembled by adding 2.5 μL of kinase eluate to 7.5 μL of qPCR master mix containing 0.15 μM amplicon primers and 0.15 μM amplicon probe. The qPCR protocol consisted of a 10 minute hot start at 95° C., followed by 35 cycles of 95° C. for 15 seconds, 60° C. for 1 minute.
Test compounds were prepared as 111× stocks in 100% DMSO. Kds were determined using an 11-point 3-fold compound dilution series with three DMSO control points. All compounds for Kd measurements were distributed by acoustic transfer (non-contact dispensing) in 100% DMSO. The compounds were then diluted directly into the assays such that the final concentration of DMSO was 0.9%. The Kds were determined using a compound top concentration of 30,000 nM. Kd measurements were performed in duplicate.
Binding constants (Kds) were calculated with a standard dose-response curve using the Hill equation: […]
The Hill Slope was set to −1. […]

JAK2 JH1 = target: T5, JAK2 JH1 (Homo sapiens, UniProt O60674); assay: KINOMEscan binding, JAK2 JH1
T5 construct: JAK2 JH1
T5 sequence (O60674 849-1124 limits assumed): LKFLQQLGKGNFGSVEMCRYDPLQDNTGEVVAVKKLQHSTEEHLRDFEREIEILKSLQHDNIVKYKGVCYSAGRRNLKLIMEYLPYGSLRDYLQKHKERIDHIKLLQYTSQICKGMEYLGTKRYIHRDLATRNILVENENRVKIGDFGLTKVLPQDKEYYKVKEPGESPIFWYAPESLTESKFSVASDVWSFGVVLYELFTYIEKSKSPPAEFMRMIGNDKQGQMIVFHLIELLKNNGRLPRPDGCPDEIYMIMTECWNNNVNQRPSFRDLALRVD

JAK1 JH2 = target: T6, JAK1 JH2 (Homo sapiens, UniProt P23458); assay: KINOMEscan binding, JAK1 JH2
T6 construct: JAK1 JH2
T6 sequence (P23458 583-855 limits assumed): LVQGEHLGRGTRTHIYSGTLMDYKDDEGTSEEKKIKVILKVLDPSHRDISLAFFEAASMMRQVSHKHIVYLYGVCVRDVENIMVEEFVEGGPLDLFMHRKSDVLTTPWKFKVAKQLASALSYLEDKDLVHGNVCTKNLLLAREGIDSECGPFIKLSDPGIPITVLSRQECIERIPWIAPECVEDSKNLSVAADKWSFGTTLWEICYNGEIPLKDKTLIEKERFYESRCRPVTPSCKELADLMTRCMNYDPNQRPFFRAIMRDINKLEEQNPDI

TYK2 JH1 = target: T7, TYK2 JH1 (Homo sapiens, UniProt P29597); assay: KINOMEscan binding, TYK2 JH1
T7 construct: TYK2 JH1
T7 sequence (P29597 897-1176 limits assumed): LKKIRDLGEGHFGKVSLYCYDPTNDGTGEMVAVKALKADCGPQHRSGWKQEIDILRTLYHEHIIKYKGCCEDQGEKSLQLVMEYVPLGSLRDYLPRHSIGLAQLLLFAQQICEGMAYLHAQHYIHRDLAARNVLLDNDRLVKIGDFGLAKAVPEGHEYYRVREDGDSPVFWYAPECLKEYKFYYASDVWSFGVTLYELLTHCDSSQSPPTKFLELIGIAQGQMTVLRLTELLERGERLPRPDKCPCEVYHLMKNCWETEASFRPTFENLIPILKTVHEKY

Compound	Kd (JAK2 JH2) [µM]	Kd (JAK3 JH1) [µM]	Kd (JAK1 JH1) [µM]	Kd [1] [µM]	Kd (JAK2 JH1) [µM]	Kd (JAK1 JH2) [µM]	Kd (TYK2 JH1) [µM]	IC50 (IFNa, PBMCs, p-STAT5) [µM]	IC50 (IFNa, PBMCs, p-STAT3) [µM]
CNc1cc2nn3c(cnc13)C(=O)N[C@@H]1CCC[C@H]1OCc1cc(c3nnn(C)c3c1)N2 [Compound 1]	1 to 10	10 to 30	≥ 30	< 0.01	≥ 30	–	–	< 0.1	< 0.1
CNc1cc2nn3c(cnc13)C(=O)N[C@@H]1CCC[C@H]1OCc1cc(c3c(c1)nnn3C)N2 [Compound 3]	≥ 30	≥ 30	≥ 30	< 0.01	≥ 30	10 to 30	≥ 30	–	–
CNc1cc2nn3c(cnc13)C(=O)N[C@@H]1CCC[C@H]1OCc1cc(c3nn(C)nc3c1)N2 [Compound 4, (1^5E,3^4E,6^1R,6^2R)-3^2-Methyl-1^8-(methylamino)-3^2H-5-oxa-2,7-diaza-1(6,3),3(4,6)-diimidazo[1,2-b]pyridazina-6(1,2)-cyclopentanacyclooctaphan-8-one]	1 to 10	10 to 30	≥ 30	< 0.01	1 to 10	0.01 to 1	10 to 30	< 0.1	< 0.1
CNc1cc2nn3c(cnc13)C(=O)N[C@@H]1CCC[C@@H]1OCc1cc(c3nnn(C)c3c1)N2 [Compound 5]	1 to 10	≥ 30	≥ 30	< 0.01	≥ 30	0.01 to 1	≥ 30	–	–
(1^3E,1^4E,3^4E,6^1R,6^2R)-3^2-Methyl-1^7-(methylamino)-3^2H-5-oxa-2,7-diaza-1(5,3),3(4,6)-dipyrazolo[1,5-a]pyrimidina-6(1,2)-cyclopentanacyclooctaphan-8-one [Compound 10]	–	–	–	< 0.01	–	1 to 10	≥ 30	–	–
(1^3E,1^4E,6^1R,6^2R)-3^1-Methyl-1^7-(methylamino)-3^1H-5-oxa-2,7-diaza-1(5,3),3(4,6)-dipyrazolo[1,5-a]pyrimidina-6(1,2)-cyclopentanacyclooctaphan-8-one [Compound 2]	–	–	–	< 0.01	–	1 to 10	≥ 30	–	–
(1^3E,1^4E,6^1S,6^2R)-3^1-Methyl-1^7-(methylamino)-3^1H-5-oxa-2,7-diaza-1(5,3),3(4,6)-dipyrazolo[1,5-a]pyrimidina-6(1,2)-cyclopentanacyclooctaphan-8-one [Compound 11]	–	–	–	< 0.01	–	0.01 to 1	≥ 30	–	–

Further lines, with some results ahead:

Kd (JAK2 JH2) [µM]	Kd (JAK3 JH1) [µM]	Kd (JAK1 JH1) [µM]	Kd [1] [µM]	Kd (JAK2 JH1) [µM]	Kd (JAK1 JH2) [µM]	Kd (TYK2 JH1) [µM]	Compound	IC50 (IFNa, PBMCs, p-STAT5) [µM]	IC50 (IFNa, PBMCs, p-STAT3) [µM]
1 to 10	≥ 30	≥ 30	< 0.01	≥ 30	0.01 to 1	≥ 30	CNc1cc2nn3c(cnc13)C(=O)N[C@@H]1CCC[C@@H]1OCc1cc(c3c(c1)nnn3C)N2 [Compound 6, (6^1S,6^2R,E)-3^1-Methyl-1^8-(methylamino)-3^1H-5-oxa-2,7-diaza-1(6,3),3(7,5)-diimidazo[1,2-b]pyridazina-6(1,2)-cyclopentanacyclooctaphan-8-one]	–	–
10 to 30	≥ 30	≥ 30	< 0.01	≥ 30	0.01 to 1	≥ 30	CNc1cc2nn3c(cnc13)C(=O)N[C@@H]1CCC[C@@H]1OCc1cc(c3nn(C)nc3c1)N2 [Compound 7]	–	–
–	–	–	< 0.01	–	0.01 to 1	10 to 30	CNc1cc2nc3c(cnn13)C(=O)N[C@@H]1CCC[C@H]1OCc1cc(c3nn(C)nc3c1)N2 [Compound 8]	–	–
–	–	–	< 0.01	–	0.01 to 1	≥ 30	CNc1cc2nc3c(cnn13)C(=O)N[C@@H]1CCC[C@@H]1OCc1cc(c3nnn(C)c3c1)N2 [Compound 9]	–	–
–	–	–	< 0.01	–	10 to 30	≥ 30	CNc1cc2nn3c(cnc13)Nc1cc(cc3c1ncn3C)COC1CCCC1NC2=O (stereo not shown) [Compound 12, (6^1R,6^2R,E)-3^1-Methyl-1^8-(methylamino)-3^1H-5-oxa-2,7-diaza-1(6,3)-imidazo[1,2-b]pyridazina-3(4,6)-benzo[d]imidazola-6(1,2)-cyclopentanacyclooctaphan-8-one]	–	–
–	–	–	< 0.01	–	1 to 10	≥ 30	CNc1cc2nc3c(cnn13)C(=O)N1CC[C@H](C1)OCc1cc(c3nnn(C)c3c1)N2 [Compound 44]	–	–
–	–	–	< 0.01	–	1 to 10	≥ 30	CNc1cc2nc3c(cnn13)C(=O)N1CC[C@@H](C1)OCc1cc(c3nnn(C)c3c1)N2 [Compound 45]	–	–
–	–	–	< 0.01	–	1 to 10	≥ 30	CNc1cc2nn3c(cnc13)C(=O)N[C@@H]1CCC[C@H]1OCc1cc(c3nnn(C)c3c1)N2 [Compound 49]	–	–
1 to 10	1 to 10	≥ 30	< 0.01	10 to 30	1 to 10	≥ 30	[2H]C1([2H])O[C@@H]2CCC[C@H]2NC(=O)c2cnc3c(NC)cc(nn23)Nc2cc1cc1c2nnn1C [Compound 50]	–	–
1 to 10	10 to 30	≥ 30	< 0.01	≥ 30	0.01 to 1	≥ 30	[2H]C1([2H])O[C@H]2CCC[C@H]2NC(=O)c2cnc3c(NC)cc(nn23)Nc2cc1cc1c2nnn1C [Compound 51]	–	–
